Measurements published in PubChem BioAssay AID1918937 (Molecular Pharmacology Branch, DTP, NCI, 2023).
Several values for one entry are separate records, joined by “and”; a condition that tells them apart may be missing. Identical values can stand only once.

Tested on: 521955-158-R2-J5-PDC complex spheroid viability
Assay: Anticancer human tumor 521955-158-R2-J5-PDC patient-derived pancreatic carcinoma cell line growth inhibition
Conditions: for viability, T/C: stronger effect = lower value; active means viability on the fitted dose curve at most 10% of control; inactive means the rest
Outline: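 Complex spheroids of tumor cells with HUVEC and human MSCs, exposed to iadademstat combined with other agents. Each agent tested in half-log steps from near clinical Cmax (else 10 microM top), DMSO ≤0.25%.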

[1] = curve of first compound, second compound 0.1 µM
[2] = curve of first compound, second compound 0.316 µM
[3] = curve of first compound, second compound 1 µM
[4] = curve of first compound, second compound 3.16 µM
[5] = curve of first compound, second compound 10 µM
[6] = second compound 0.1 µM, first compound 0.00316 µM
[7] = second compound 0.1 µM, first compound 0.01 µM
[8] = second compound 0.1 µM, first compound 0.0316 µM
[9] = second compound 0.1 µM, first compound 0.1 µM
[10] = second compound 0.316 µM, first compound 0.00316 µM
[11] = second compound 0.316 µM, first compound 0.01 µM
[12] = second compound 0.316 µM, first compound 0.0316 µM
[13] = second compound 0.316 µM, first compound 0.1 µM
[14] = second compound 1 µM, first compound 0.00316 µM
[15] = second compound 1 µM, first compound 0.01 µM
[16] = second compound 1 µM, first compound 0.0316 µM
[17] = second compound 1 µM, first compound 0.1 µM
[18] = second compound 3.16 µM, first compound 0.00316 µM
[19] = second compound 3.16 µM, first compound 0.01 µM
[20] = second compound 3.16 µM, first compound 0.0316 µM
[21] = second compound 3.16 µM, first compound 0.1 µM
[22] = second compound 10 µM, first compound 0.00316 µM
[23] = second compound 10 µM, first compound 0.01 µM
[24] = second compound 10 µM, first compound 0.0316 µM
[25] = second compound 10 µM, first compound 0.1 µM
[26] = second compound 0.1 µM, first compound 0.316 µM
[27] = second compound 0.1 µM, first compound 1 µM
[28] = second compound 0.316 µM, first compound 0.316 µM
[29] = second compound 0.316 µM, first compound 1 µM
[30] = second compound 1 µM, first compound 0.316 µM
[31] = second compound 1 µM, first compound 1 µM
[32] = second compound 3.16 µM, first compound 0.316 µM
[33] = second compound 3.16 µM, first compound 1 µM
[34] = second compound 10 µM, first compound 0.316 µM
[35] = second compound 10 µM, first compound 1 µM
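Further: spheroids exposed to agents for seven days.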
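Wherever viability, T/C is given: percent of DMSO vehicle control luminescence viability.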

Cn1ncnc1C1c2n[nH]c(=O)c3cc(F)cc(c23)NC1c1ccc(F)cc1 (centres undefined) + NC1CCC(NC2CC2c2ccccc2)CC1
> 100 nM: IC50 [1] | IC50 [2] | IC50 [3] | IC50 [4] | IC50 [5]
inactive: viability, T/C (second compound 0.1 µM, first compound 0.000316 µM) 109% | viability, T/C (second compound 0.1 µM, first compound 0.001 µM) 99.9% | viability, T/C [6] 98% | viability, T/C [7] 94.1% | viability, T/C [8] 83% | viability, T/C [9] 87.3% | viability, T/C (second compound 0.316 µM, first compound 0.000316 µM) 103% | viability, T/C (second compound 0.316 µM, first compound 0.001 µM) 92.4% | viability, T/C [10] 89.8% | viability, T/C [11] 92.8% | viability, T/C [12] 85.1% | viability, T/C [13] 80.6% | viability, T/C (second compound 1 µM, first compound 0.000316 µM) 90.5% | viability, T/C (second compound 1 µM, first compound 0.001 µM) 95.5% | viability, T/C [14] 90.1% | viability, T/C [15] 87.2% | viability, T/C [16] 81.8% | viability, T/C [17] 73.6% | viability, T/C (second compound 3.16 µM, first compound 0.000316 µM) 100% | viability, T/C (second compound 3.16 µM, first compound 0.001 µM) 96.5% | viability, T/C [18] 95% | viability, T/C [19] 85.9% | viability, T/C [20] 85.2% | viability, T/C [21] 76.3% | viability, T/C (second compound 10 µM, first compound 0.000316 µM) 93.7% | viability, T/C (second compound 10 µM, first compound 0.001 µM) 97.2% | viability, T/C [22] 92.8% | viability, T/C [23] 84.6% | viability, T/C [24] 82% | viability, T/C [25] 74.2%

Nc1ccccc1NC(=O)c1ccc(CNC(=O)OCc2cccnc2)cc1 + NC1CCC(NC2CC2c2ccccc2)CC1
293 nM: IC50 [4]
321 nM: IC50 [1]
inactive: viability, T/C (second compound 0.1 µM, first compound 0.00949 µM) 104% | viability, T/C (second compound 0.1 µM, first compound 0.03 µM) 107% | viability, T/C (second compound 0.1 µM, first compound 0.0949 µM) 86.8% | viability, T/C (second compound 0.1 µM, first compound 0.3 µM) 55.1% | viability, T/C (second compound 0.1 µM, first compound 0.949 µM) 9.73% | viability, T/C (second compound 0.316 µM, first compound 0.00949 µM) 103% | viability, T/C (second compound 0.316 µM, first compound 0.03 µM) 99% | viability, T/C (second compound 0.316 µM, first compound 0.0949 µM) 88.7% | viability, T/C (second compound 0.316 µM, first compound 0.3 µM) 62.8% | viability, T/C (second compound 0.316 µM, first compound 0.949 µM) 11.8% | viability, T/C (second compound 1 µM, first compound 0.00949 µM) 98.7% | viability, T/C (second compound 1 µM, first compound 0.03 µM) 101% | viability, T/C (second compound 1 µM, first compound 0.0949 µM) 84.4% | viability, T/C (second compound 1 µM, first compound 0.3 µM) 57% | viability, T/C (second compound 1 µM, first compound 0.949 µM) 12.4% | viability, T/C (second compound 3.16 µM, first compound 0.00949 µM) 102% | viability, T/C (second compound 3.16 µM, first compound 0.03 µM) 101% | viability, T/C (second compound 3.16 µM, first compound 0.0949 µM) 80.4% | viability, T/C (second compound 3.16 µM, first compound 0.3 µM) 52.7% | viability, T/C (second compound 3.16 µM, first compound 0.949 µM) 10.7% | viability, T/C (second compound 10 µM, first compound 0.00949 µM) 96.8% | viability, T/C (second compound 10 µM, first compound 0.03 µM) 98% | viability, T/C (second compound 10 µM, first compound 0.0949 µM) 78.2% | viability, T/C (second compound 10 µM, first compound 0.3 µM) 58.6% | viability, T/C (second compound 10 µM, first compound 0.949 µM) 10.2%
334 nM: IC50 [5]
389 nM: IC50 [2]
342 nM: IC50 [3]
active: viability, T/C (second compound 0.1 µM, first compound 3 µM) 0.31% | viability, T/C (second compound 0.316 µM, first compound 3 µM) 0.34% | viability, T/C (second compound 1 µM, first compound 3 µM) 0.26% | viability, T/C (second compound 3.16 µM, first compound 3 µM) 0.24% | viability, T/C (second compound 10 µM, first compound 3 µM) 0.35%

COc1ccc([C@@H](O)c2cc(-c3ncnc4cc(N5CCOCC5)ccc34)c(F)cc2Cl)nn1
inactive: viability, T/C (compound 0.0316 µM) 99.8% and 97.6% | viability, T/C (compound 0.1 µM) 87% and 104% | viability, T/C (compound 0.316 µM) 73.6% and 84.4% | viability, T/C (compound 1 µM) 57.1% and 63.2% | viability, T/C (compound 3.16 µM) 38.6% and 57.8% | viability, T/C (compound 10 µM) 22.4% and 24.5%
1550 nM and 3390 nM: IC50 (curve of compound)

CC1(C)CCC(CN2CCN(c3ccc(C(=O)NS(=O)(=O)c4ccc(NCC5CCOCC5)c([N+](=O)[O-])c4)c(Oc4cnc5[nH]ccc5c4)c3)CC2)=C(c2ccc(Cl)cc2)C1 + NC1CC1c1ccc(-c2cccc(O)c2)cc1
3860 nM: IC50 [2] | IC50 [5]
3900 nM: IC50 [3]
inactive: viability, T/C [8] 93.2% | viability, T/C [9] 86% | viability, T/C [26] 95.6% | viability, T/C [27] 92.8% | viability, T/C (second compound 0.1 µM, first compound 3.16 µM) 62.4% | viability, T/C [12] 81.4% | viability, T/C [13] 93.3% | viability, T/C [28] 91.6% | viability, T/C [29] 84.6% | viability, T/C (second compound 0.316 µM, first compound 3.16 µM) 60.4% | viability, T/C [16] 82% | viability, T/C [17] 92.6% | viability, T/C [30] 96.4% | viability, T/C [31] 86.9% | viability, T/C (second compound 1 µM, first compound 3.16 µM) 61% | viability, T/C [20] 87.9% | viability, T/C [21] 89.4% | viability, T/C [32] 99.4% | viability, T/C [33] 90.2% | viability, T/C (second compound 3.16 µM, first compound 3.16 µM) 63.7% | viability, T/C [24] 98.4% | viability, T/C [25] 103% | viability, T/C [34] 107% | viability, T/C [35] 86.6% | viability, T/C (second compound 10 µM, first compound 3.16 µM) 61.2%
3980 nM: IC50 [1]
4070 nM: IC50 [4]
active: viability, T/C (second compound 0.1 µM, first compound 10 µM) 0.69% | viability, T/C (second compound 0.316 µM, first compound 10 µM) 1.04% | viability, T/C (second compound 1 µM, first compound 10 µM) 0.96% | viability, T/C (second compound 3.16 µM, first compound 10 µM) 1.07% | viability, T/C (second compound 10 µM, first compound 10 µM) 0.78%

CC(C)c1c(-c2ccccc2)nc2c(C#N)c[nH]n2c1=O
> 10000 nM: IC50 (curve of compound)
inactive: viability, T/C (compound 0.0316 µM) 104% and 98.1% | viability, T/C (compound 0.1 µM) 108% and 97.9% | viability, T/C (compound 0.316 µM) 105% and 104% | viability, T/C (compound 1 µM) 101% and 86.4% | viability, T/C (compound 3.16 µM) 102% and 94.2% | viability, T/C (compound 10 µM) 86.5% and 85.9%

O=C(C=Cn1cnc(-c2cc(C(F)(F)F)cc(C(F)(F)F)c2)n1)NNc1cnccn1 + NC1CC1c1ccc(-c2cccc(O)c2)cc1
75 nM: IC50 [4]
17.8 nM: IC50 [5]
219 nM: IC50 [1]
inactive: viability, T/C [6] 81.3% | viability, T/C [7] 75% | viability, T/C [8] 85.6% | viability, T/C [9] 65.6% | viability, T/C [26] 42.5% | viability, T/C [27] 23.1% | viability, T/C [10] 69.8% | viability, T/C [11] 79.1% | viability, T/C [12] 78.5% | viability, T/C [13] 78% | viability, T/C [28] 34.2% | viability, T/C [29] 22.7% | viability, T/C [14] 65.1% | viability, T/C [15] 66.5% | viability, T/C [16] 79.3% | viability, T/C [17] 53.6% | viability, T/C [30] 40.5% | viability, T/C [31] 19.4% | viability, T/C [18] 67.2% | viability, T/C [19] 61.2% | viability, T/C [20] 52.2% | viability, T/C [21] 50.4% | viability, T/C [32] 36.9% | viability, T/C [33] 17.5% | viability, T/C [22] 56.6% | viability, T/C [23] 56.9% | viability, T/C [24] 43.6% | viability, T/C [25] 36.5% | viability, T/C [34] 24.7% | viability, T/C [35] 16.8%
205 nM: IC50 [2]
168 nM: IC50 [3]
